The values that follow come from US20090233342A1, “HETEROLOGOUS EXPRESSION OF PROTEORHODOPSIN PHOTOSYSTEM” (priority 2007, published 2009).

Assay [1] concerns HF10—19P19 cells. Nature of the assay: Proton-pumping assay (light-driven pH change of cell suspension). The format is cell-based, Escherichia coli. The note with it: PR^+ HF10—19P19 cells; CCCP 25 μM (2 h dark preincubation), DCCD 1 mM (20 h dark preincubation). On the procedure:
FIG. 3. Light-activated, PR-enabled photophosphorylation in E. coli. (A) Diagram of the proposed mechanism of PR-dependent ATP synthesis. The effects of the inhibitors used are indicated. (B) Proton-pumping assays with HF10—19P19 cells. pH measurements are expressed as the pH change respect to the pH at time 0 for each sample. CCCP, 25 μM; DCCD, 1 mM. Gray boxes indicate dark periods. (C) ATP assays with HF10—19P19 cells. Results are expressed as the difference between the ATP level in the light and the ATP level in the dark, ΔATP, for each treatment.
Fosmid Library. The HOT—10m fosmid library screened in this work has been described previously (14). It contains DNA from a planktonic sample collected 10 m below the surface at the ALOHA station (22°45′ N, 158°W) of the Hawaii Ocean Time series (HOT) cloned into the copy-controlled pCC1FOS fosmid vector (Epicentre Biotechnologies, Madison, Wis.). The library host, E. coli EPI300 (Epicentre Biotechnologies), supports the copy-control option of pCC1FOS. Screening for PR Expression. High-density colony macroarrays [12,280 clones of the HOT—10m library (ref. 14)] were prepared on a Performa II filter (Genetix Ltd., Boston, Mass.) by using a Q-PixII robot (Genetix Ltd.). […] The color phenotype of individual Tn5-insertion clones was analyzed on LB plates containing chloramphenicol, kanamycin, and 0.02% L-arabinose as above. […]

Assay [2] concerns PR^+ E. coli cells. Type of assay: cell-based, Escherichia coli. The note with it: for effect on photophosphorylation (light-driven ATP synthesis, ΔATP light minus dark): PR^+ HF10—19P19 cells, CCCP 25 μM (2 h dark preincubation), DCCD 1 mM (20 h dark preincubation).

Consider `N#CC(C#N)=NNc1cccc(Cl)c1` [CCCP, carbonylcyanide m-chlorophenylhydrazone], for which, in assay [1], the “effect on light-driven decrease in pH (PR-catalyzed proton translocation)” value is “completely abolished”. In assay [2], the “effect on photophosphorylation (light-driven ATP synthesis, ΔATP light minus dark)” value is “completely abolished”. In the case of `C(=NC1CCCCC1)=NC1CCCCC1` [DCCD, N,N′-dicyclohexylcarbodiimide], the “effect on light-driven decrease in pH (PR-catalyzed proton translocation)” value in assay [1] was “did not affect”. Further, the “effect on photophosphorylation (light-driven ATP synthesis, ΔATP light minus dark)” value in assay [2] is given as “completely abolished”. As for `O=C(O)CCC(=O)O` [succinate], the “net gain of ATP by oxidative phosphorylation” value in assay [2] (5 min after addition of 0.2% succinate to PR^+ cells in the dark, data not shown) was 9×10^5 ATP molecules per live cell.
